Test results reported in patent US12605350B2, “Composition for preventing, ameliorating, or treating disease caused by nitration of tyrosine in proteins comprising tyrosine as effective component” (INDUSTRY-ACADEMIC COOPERATION FOUNDATION GYEONGSANG …, priority 2020, dated 2026).
“Also recorded” adds a separate entry of the source.

Columns and labels:
mouse PFC protein = test: inhibitory effect on in vitro nitration of mouse PFC protein induced by ONOO−; type: biochemical; conditions: mouse PFC protein treated with ONOO−
Source text: By treating mouse PFC protein with ONOO^−, protein nitration was induced and the inhibitory effect on nitration by tyrosine was examined.

[1] = system: mouse model of epileptic seizure which has been induced to have seizure by kainic acid; test: immunohistochemistry of hippocampal area (CA1, CA3): neurons (NeuN) and microglia (Iba1) after kainic acid; type: in vivo; conditions: tyrosine diet
Method: Blood perfusion with PBS and PFA was carried out through animal heart, and the brain was removed and post-fixed in PFA for 15 hours or longer. After washing 3 times for 10 minutes with PBS, brain tissue specimen with thickness of 40 μm was obtained using a vibratome.
In IHC buffer solution (PBS containing 0.3% Triton X-100) in which 3% bovine serum albumin is dissolved, the above-obtained brain specimen was blocked for 1 hour at room temperature and then reacted at 4° C. for 15 hours or longer with a primary antibody (anti-NeuN (Millipore, MAB377, 1:500), anti-Ibal (Wako, 019-19741, 1:200)) (IHC buffer solution containing 3% BSA). After washing 3 times, each for 10 minutes, with the IHC buffer solution, it was reacted with a flurolabeled secondary antibody (anti-Mouse IgG Alexa Fluor 488 (Invitrogen, 1:1000), anti-Rabbit IgG AlexaFluor594 (Invitrogen, […])) for 2 hours at room temperature (IHC buffer solution containing 3% BSA). After washing 3 times, each for 10 minutes, with the IHC buffer solution, the specimen was fixed on a silane-coated glass slide. An anti-fade solution containing DAPI was added onto the specimen and then dried after covering with a cover glass. Signal density of an image photographed with a fluorescent microscope was analyzed by using Image J analysis program.

[2] = system: mouse model of stroke using endothelin-1; test: brain infarction (cresyl violet staining) in endothelin-1 stroke model; type: in vivo; conditions: endothelin-1 (2 μg) to cerebral motor cortex, tyrosine 900 mg/kg (feed weight)
Method: To de-ionized water, endothelin-1 was added (2 μg/μl), and, after vigorous vortexing, completely dissolved by ultrasonication at 4° C. for about 10 minutes.
The mouse was anesthetized by intraperitoneal injection of avertin as an anesthetic (0.5 ml/25 g of mouse bodyweight). Thereafter, endothelin-1 was injected (2 μg) to the cerebral motor cortex area (with bregma at the center, AP 1.5 mm, ML-1.5 mm, and DV 1.8 mm) by stereotaxic surgery. The injection was made at speed of 0.3 μl per minute. The needle was left for about 5 minutes after completing the injection so that endothelin-1 can be fully absorbed in animal tissues. After suturing the skin, the animal was allowed to recover in the original cage.
Perfusion with PBS and PFA was carried out, via animal heart and the brain was removed and post-fixed in PFA for 15 hours or longer. After washing 3 times for 10 minutes with PBS, brain tissue specimen with thickness of 40 μm was obtained using a vibratome. Then, four specimens collected from the area injected with endothelin-1 were fixed on a silane-coated glass slide. […] The stained specimen sample was observed under an optical microscope, and, with the stored image, the area showing brain infarction was calculated by using Image J analysis program.

[3] = system: chronic immobilization stress group (STR); test: TST (tail suspension test) after chronic immobilization stress; type: in vivo, mouse; conditions: tyrosine-diet (181.2 mg/kg) vs normal diet, p<0.05
Method: The animal models were divided into two groups (i.e., normal group and stress group). The animal of stress group was individually brought by force to a restrainer for 2 hours every day (i.e., between 2 PM and 4 PM) so that it was applied with chronic immobilization stress for 15 days. Change in bodyweight and food intake amount were measured every other day. The normal group and stress group were divided again into a normal diet group and a tyrosine-supplemented diet group (181.2 mg/kg), and then fed. For TST (tail suspension test), the mouse was individually hung in a box with horizontal bar. To measure the immobile duration, animal movement was followed for 6 minutes.

[4] = system: chronic immobilization stress group (STR); test: corticosterone amount in plasma (ELISA), chronic immobilization stress; type: in vivo, mouse; conditions: tyrosine diet (181.2 mg/kg) compared to normal diet, p<0.05
Method: Each of the blood and PFC sample was obtained from a mouse anesthetized with CO2 gas. Specifically, mouse blood was collected between 9 AM and 11 AM and stored in a K3EDTA-coated vacuum container. Plasma was obtained by centrifuge for 10 minutes at 4° C., 500×g. PFC sample was weighed first, and, after lysis of the tissues by using Bullet homogenizer, subjected to centrifuge for 20 minutes at 4° C., 12,000 rpm. Thus-obtained plasma and tissue lysate were kept at −80° C. until use. After that, the animal was sacrificed, and a change in corticosterone amount in plasma was examined. ROS/RNS in plasma and PFC was also examined. The corticosterone amount was examined using an ELISA kit (Cayman) by following the manufacturer's protocol, and ROS/RNS was also examined using an ROS/RNS assay kit (Cell Biolabs, San Diego, CA, USA) by following the manufacturer's protocol. The animal models were divided into two groups (i.e., normal group and stress group). The animal of stress group was individually brought by force to a restrainer for 2 hours every day (i.e., between 2 PM and 4 PM) so that it was applied with chronic immobilization stress for 15 days. Change in bodyweight and food intake amount were measured every other day. The normal group and stress group were divided again into a normal diet group and a tyrosine-supplemented diet group (181.2 mg/kg), and then fed.

For N[C@@H](Cc1ccc(O)cc1)C(=O)O [tyrosine], the “inhibitory effect on nitration of proteins” value (mouse PFC protein) was “nitration of the proteins is inhibited in tyrosine concentration dependent manner”, the “activity of microglia in hippocampal area (CA1, CA3)” value [1] was “reduced; also recorded: significant decrease in the activity of microglia” and the “number of the neuronal cells in hippocampal area (CA1, CA3)” value [1] was “maintained without a loss”. The infarct volume [2] was “infarct volume is reduced”, the immobile duration [3] was “statistically significant decrease in immobile duration” and the “corticosterone amount in plasma” value [4] was “statistically significant decrease in corticosterone amount”.
